The record followed here is ChEMBL document CHEMBL4000141, “Synthesis and carbonic anhydrase isoenzymes I, II, IX, and XII inhibitory effects of dimethoxybromophenol derivatives incorporating cyclopropane moieties” (J Med Chem, 2015).

In the first assay the target is Carbonic anhydrase 12 (Homo sapiens, UniProt O43570). In words: Inhibition of human CA12 by stopped-flow CO2 hydration method.
Chain of Carbonic anhydrase 12 (O43570 whole entry): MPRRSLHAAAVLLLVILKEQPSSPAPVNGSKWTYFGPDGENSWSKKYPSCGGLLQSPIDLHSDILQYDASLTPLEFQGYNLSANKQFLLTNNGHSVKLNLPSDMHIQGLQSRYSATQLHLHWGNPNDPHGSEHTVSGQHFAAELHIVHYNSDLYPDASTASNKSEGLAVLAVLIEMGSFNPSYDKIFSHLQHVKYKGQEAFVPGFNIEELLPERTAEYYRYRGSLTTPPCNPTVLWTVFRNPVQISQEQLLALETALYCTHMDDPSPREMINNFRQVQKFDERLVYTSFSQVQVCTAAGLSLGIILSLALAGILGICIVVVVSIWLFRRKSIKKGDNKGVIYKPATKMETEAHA
Compound `COc1cc(Br)c(C[C@H]2C[C@H]2C(=O)O)c(Br)c1OC` had a Ki of more than 50 µM. For `COc1cc(Br)c(C[C@@H]2C[C@H]2C(=O)O)c(Br)c1OC`, the Ki was more than 50 µM. Compound `COc1cc(C[C@H]2C[C@H]2C(=O)O)c(Br)c(Br)c1OC` registered a Ki of more than 50 µM.

In the case of `COc1cc(C[C@@H]2C[C@H]2C(=O)O)c(Br)c(Br)c1OC`, the Ki was more than 50 µM.

In another assay the target is Carbonic anhydrase 9 (Homo sapiens, UniProt Q16790).
Description: Inhibition of human CA9 by stopped-flow CO2 hydration method
The compound `COc1c(Br)c(Br)c(C[C@H]2C[C@H]2C(=O)O)c(Br)c1OC` registered a Ki of 10.5 µM. In turn, `COc1ccc(C[C@H]2C[C@H]2CO)cc1OC` yielded a Ki of 4.9 µM. On to `COc1cc(Br)c(C[C@@H]2C[C@H]2C(=O)O)cc1OC`, for which the Ki turned out to be 9.8 µM. On the same count and under the same terms, for `CCOC(=O)[C@@H]1C[C@@H]1Cc1ccc(OC)c(OC)c1` the value was 6.6 µM.

The compound `CCOC(=O)[C@@H]1C[C@H]1Cc1c(Br)c(Br)c(OC)c(OC)c1Br` yielded an inhibition constant (Ki) of 7.8 µM. The same measure, in the same setting: in the case of `COc1ccc(C[C@@H]2C[C@H]2CO)cc1OC` it was 8.8 µM; in that of `COc1ccc(C[C@@H]2C[C@H]2C(=O)O)cc1OC`, 1.1 µM; in that of `COc1c(Br)c(Br)c(C[C@@H]2C[C@H]2C(=O)O)c(Br)c1OC`, more than 50 µM.

Turning to `CCOC(=O)[C@@H]1C[C@@H]1Cc1c(Br)cc(OC)c(OC)c1Br`, the affinity, expressed as Ki, was 8.9 µM. As for `CCOC(=O)[C@@H]1C[C@@H]1Cc1cc(OC)c(OC)cc1Br`, affinity was put at a Ki of 1 µM. Regarding `COc1cc(Br)c(C[C@H]2C[C@H]2C(=O)O)c(Br)c1OC`, the inhibitory constant (Ki) is more than 50 µM.

On to `COc1cc(Br)c(C[C@@H]2C[C@H]2C(=O)O)c(Br)c1OC`, for which the Ki was more than 50 µM.

Consider `CCOC(=O)[C@@H]1C[C@H]1Cc1cc(OC)c(OC)c(Br)c1Br`, for which the Ki amounted to 9 µM. The compound `COc1cc(Br)c(C[C@H]2C[C@H]2C(=O)O)cc1OC` yielded a Ki of more than 50 µM. Consider `CCOC(=O)[C@@H]1C[C@H]1Cc1ccc(OC)c(OC)c1`, for which the affinity, expressed as Ki, was 9.1 µM. The same measure, in the same setting: for `CCOC(=O)[C@@H]1C[C@@H]1Cc1c(Br)c(Br)c(OC)c(OC)c1Br` the value was more than 50 µM; for `COc1ccc(C[C@@H]2C[C@@H]2C(=O)O)cc1OC`, 8.8 µM.

Take `COc1cc(C[C@H]2C[C@H]2C(=O)O)c(Br)c(Br)c1OC`: the Ki was more than 50 µM.

Take `COc1cc(C[C@@H]2C[C@H]2C(=O)O)c(Br)c(Br)c1OC`: the Ki is more than 50 µM. Same read-out and setting: in the case of `CCOC(=O)[C@@H]1C[C@@H]1Cc1cc(OC)c(OC)c(Br)c1Br` it was more than 50 µM; in that of `CCOC(=O)[C@@H]1C[C@H]1Cc1c(Br)cc(OC)c(OC)c1Br`, 9.7 µM; in that of `CCOC(=O)[C@@H]1C[C@H]1Cc1cc(OC)c(OC)cc1Br`, 7.3 µM.
